{
  "source": "ChEMBL document CHEMBL1127579",
  "about": "“Novel, potent luteinizing hormone-releasing hormone antagonists with improved solubility in water” (1994)",
  "format_in_all_cases": "functional",
  "key": {"Rattus norvegicus [1]": {"species": "Rattus norvegicus", "assay": "Evaluated for histamine releasing activity"}, "Rattus norvegicus [2]": {"species": "Rattus norvegicus", "assay": "Antiovulatory activity expressed as ratio of rats ovulated/total rats at a dose of 1.0 ug; 0/10"}, "Rattus norvegicus [3]": {"species": "Rattus norvegicus", "assay": "Antiovulatory activity expressed as ratio of rats ovulated/total rats at a dose of 0.5 microg; 9/25"}, "Rattus norvegicus [4]": {"species": "Rattus norvegicus", "assay": "Antiovulatory activity expressed as ratio of rats ovulated/total rats at a dose of 0.5 microg; 5/8"}, "Rattus norvegicus [5]": {"species": "Rattus norvegicus", "assay": "Antiovulatory activity expressed as ratio of rats ovulated/total rats at a dose of 0.5 microg; 2/5"}, "Rattus norvegicus [6]": {"species": "Rattus norvegicus", "assay": "Antiovulatory activity expressed as ratio of rats ovulated/total rats at a dose of 0.5 microg; 0/10"}, "Rattus norvegicus [7]": {"species": "Rattus norvegicus", "assay": "Antiovulatory activity expressed as ratio of rats ovulated/total rats at a dose of 0.25 microg; 6/10"}, "Rattus norvegicus [8]": {"species": "Rattus norvegicus", "assay": "Antiovulatory activity expressed as ratio of rats ovulated/total rats at a dose of 0.5 microg; 6/7"}, "Rattus norvegicus [9]": {"species": "Rattus norvegicus", "assay": "Antiovulatory activity expressed as ratio of rats ovulated/total rats at a dose of 0.5 microg; 3/8"}, "Rattus norvegicus [10]": {"species": "Rattus norvegicus", "assay": "Antiovulatory activity expressed as ratio of rats ovulated/total rats at a dose of 1.0 ug; 0/8"}, "Rattus norvegicus [11]": {"species": "Rattus norvegicus", "assay": "Antiovulatory activity expressed as ratio of rats ovulated/total rats at a dose of 0.5 microg; 3/6"}, "Rattus norvegicus [12]": {"species": "Rattus norvegicus", "assay": "Antiovulatory activity expressed as ratio of rats ovulated/total rats at a dose of 0.5 microg; 4/5"}, "Rattus norvegicus [13]": {"species": "Rattus norvegicus", "assay": "Antiovulatory activity expressed as ratio of rats ovulated/total rats at a dose of 0.25 microg; 2/12"}, "Rattus norvegicus [14]": {"species": "Rattus norvegicus", "assay": "Antiovulatory activity expressed as ratio of rats ovulated/total rats at a dose of 1.0 ug; 0/6"}, "Rattus norvegicus [15]": {"species": "Rattus norvegicus", "assay": "Antiovulatory activity expressed as ratio of rats ovulated/total rats at a dose of 0.5 microg; 2/6"}, "Rattus norvegicus [16]": {"species": "Rattus norvegicus", "assay": "Antiovulatory activity expressed as ratio of rats ovulated/total rats at a dose of 0.5 microg; 2/12"}, "Rattus norvegicus [17]": {"species": "Rattus norvegicus", "assay": "Antiovulatory activity expressed as ratio of rats ovulated/total rats at a dose of 0.25 microg; 3/7"}},
  "data": [
    {"smiles": "CC(=O)N[C@H](Cc1ccc2ccccc2c1)C(=O)N[C@H](Cc1ccc(Cl)cc1)C(=O)N[C@H](Cc1cccnc1)C(=O)N[C@@H](CO)C(=O)N[C@@H](CCCCNC(=O)c1cccnc1)C(=O)N[C@H](CCCCNC(=O)c1cccnc1)C(=O)N[C@@H](CC(C)C)C(=O)N[C@@H](CCCCN)C(=O)N1CCC[C@H]1C(=O)N[C@H](C)C(=O)O", "values": [
      {"measurement": "ED50", "setting": "Rattus norvegicus [1]", "value": "> 300", "unit": "µg/mL"},
      {"measurement": "Ratio", "setting": "Rattus norvegicus [2]", "value": 0},
      {"measurement": "Ratio", "setting": "Rattus norvegicus [3]", "value": 9}
    ]},
    {"smiles": "CC(=O)N[C@H](Cc1ccc2ccccc2c1)C(=O)N[C@H](Cc1ccc(Cl)cc1)C(=O)N[C@H](Cc1cccnc1)C(=O)N[C@@H](CO)C(=O)N[C@@H](CCCCNC(=O)c1cccnc1)C(=O)N[C@H](CCCCNC(=O)c1ccccn1)C(=O)N[C@@H](CC(C)C)C(=O)N[C@@H](CCCCN)C(=O)N1CCC[C@H]1C(=O)N[C@H](C)C(=O)O", "values": [
      {"measurement": "ED50", "setting": "Rattus norvegicus [1]", "value": 60, "unit": "µg/mL"},
      {"measurement": "Ratio", "setting": "Rattus norvegicus [4]", "value": 5}
    ]},
    {"smiles": "CC(=O)N[C@H](Cc1ccc2ccccc2c1)C(=O)N[C@H](Cc1ccc(Cl)cc1)C(=O)N[C@H](Cc1cccnc1)C(=O)N[C@@H](CO)C(=O)N[C@@H](CCCCNC(=O)c1ccccn1)C(=O)N[C@H](CCCCNC(=O)c1cccnc1N)C(=O)N[C@@H](CC(C)C)C(=O)N[C@@H](CCCCNC(C)C)C(=O)N1CCC[C@H]1C(=O)N[C@H](C)C(=O)O", "values": [
      {"measurement": "Ratio", "setting": "Rattus norvegicus [5]", "value": 2}
    ]},
    {"smiles": "CC(=O)N[C@H](Cc1ccc2ccccc2c1)C(=O)N[C@H](Cc1ccc(Cl)cc1)C(=O)N[C@H](Cc1cccnc1)C(=O)N[C@@H](CO)C(=O)N[C@@H](CCCCNC(=O)c1ccccn1)C(=O)N[C@H](CCCCNC(=O)c1ccccn1)C(=O)N[C@@H](CC(C)C)C(=O)N[C@@H](CCCCN)C(=O)N1CCC[C@H]1C(=O)N[C@H](C)C(=O)O", "values": [
      {"measurement": "ED50", "setting": "Rattus norvegicus [1]", "value": 93, "unit": "µg/mL"},
      {"measurement": "Ratio", "setting": "Rattus norvegicus [6]", "value": 0},
      {"measurement": "Ratio", "setting": "Rattus norvegicus [7]", "value": 6}
    ]},
    {"smiles": "CC(=O)N[C@H](Cc1ccc2ccccc2c1)C(=O)N[C@H](Cc1ccc(Cl)cc1)C(=O)N[C@H](Cc1cccnc1)C(=O)N[C@@H](CO)C(=O)N[C@@H](CCCCNC(=O)c1nccnc1N)C(=O)N[C@H](CCCCNC(=O)c1nccnc1N)C(=O)N[C@@H](CC(C)C)C(=O)N[C@@H](CCCCNC(C)C)C(=O)N1CCC[C@H]1C(=O)N[C@H](C)C(=O)O", "values": [
      {"measurement": "Ratio", "setting": "Rattus norvegicus [8]", "value": 6}
    ]},
    {"smiles": "CC(=O)N[C@H](Cc1ccc2ccccc2c1)C(=O)N[C@H](Cc1ccc(Cl)cc1)C(=O)N[C@H](Cc1cccnc1)C(=O)N[C@@H](CO)C(=O)N[C@@H](CCCCNC(=O)c1ccccn1)C(=O)N[C@H](CCCCNC(=O)c1cccnc1)C(=O)N[C@@H](CC(C)C)C(=O)N[C@@H](CCCCN)C(=O)N1CCC[C@H]1C(=O)N[C@H](C)C(=O)O", "values": [
      {"measurement": "ED50", "setting": "Rattus norvegicus [1]", "value": 39, "unit": "µg/mL"},
      {"measurement": "Ratio", "setting": "Rattus norvegicus [9]", "value": 3},
      {"measurement": "Ratio", "setting": "Rattus norvegicus [10]", "value": 0}
    ]},
    {"smiles": "CC(=O)N[C@H](Cc1ccc2ccccc2c1)C(=O)N[C@H](Cc1ccc(Cl)cc1)C(=O)N[C@H](Cc1cccnc1)C(=O)N[C@@H](CO)C(=O)N[C@@H](CCCCNC(=O)c1cnccn1)C(=O)N[C@H](CCCCNC(=O)c1ccccn1)C(=O)N[C@@H](CC(C)C)C(=O)N[C@@H](CCCCN)C(=O)N1CCC[C@H]1C(=O)N[C@H](C)C(=O)O", "values": [
      {"measurement": "Ratio", "setting": "Rattus norvegicus [11]", "value": 3}
    ]},
    {"smiles": "CC(=O)N[C@H](Cc1ccc2ccccc2c1)C(=O)N[C@H](Cc1ccc(Cl)cc1)C(=O)N[C@H](Cc1cccnc1)C(=O)N[C@@H](CO)C(=O)N[C@@H](CCCNC(=O)c1cnccn1)C(=O)N[C@H](CCCNC(=O)c1ccc(N)nc1)C(=O)N[C@@H](CC(C)C)C(=O)N[C@@H](CCCN=C(N)N)C(=O)N1CCC[C@H]1C(=O)N[C@H](C)C(=O)O", "values": [
      {"measurement": "Ratio", "setting": "Rattus norvegicus [12]", "value": 4}
    ]},
    {"smiles": "CC(=O)N[C@H](Cc1ccc2ccccc2c1)C(=O)N[C@H](Cc1ccc(Cl)cc1)C(=O)N[C@H](Cc1cccnc1)C(=O)N[C@@H](CO)C(=O)N[C@@H](CCCCNC(=O)c1ccccn1)C(=O)N[C@H](CCCCNC(=O)c1ccc(N)nc1)C(=O)N[C@@H](CC(C)C)C(=O)N[C@@H](CCCN=C(N)N)C(=O)N1CCC[C@H]1C(=O)N[C@H](C)C(=O)O", "values": [
      {"measurement": "ED50", "setting": "Rattus norvegicus [1]", "value": 8, "unit": "µg/mL"},
      {"measurement": "Ratio", "setting": "Rattus norvegicus [13]", "value": 2},
      {"measurement": "Ratio", "setting": "Rattus norvegicus [14]", "value": 0},
      {"measurement": "Ratio", "setting": "Rattus norvegicus [15]", "value": 2}
    ]},
    {"smiles": "CC(=O)N[C@H](Cc1ccc2ccccc2c1)C(=O)N[C@H](Cc1ccc(Cl)cc1)C(=O)N[C@H](Cc1cccnc1)C(=O)N[C@@H](CO)C(=O)N[C@@H](CCCCNC(=O)c1ccccn1)C(=O)N[C@H](CCCCNC(=O)c1ccc(N)nc1)C(=O)N[C@@H](CC(C)C)C(=O)N[C@@H](CCCCNC(C)C)C(=O)N1CCC[C@H]1C(=O)N[C@H](C)C(=O)O", "values": [
      {"measurement": "ED50", "setting": "Rattus norvegicus [1]", "value": 96, "unit": "µg/mL"},
      {"measurement": "Ratio", "setting": "Rattus norvegicus [14]", "value": 0},
      {"measurement": "Ratio", "setting": "Rattus norvegicus [16]", "value": 2},
      {"measurement": "Ratio", "setting": "Rattus norvegicus [17]", "value": 3}
    ]}
  ]
}
